What was measured:
Assay in all cases: relative viability (nuclei count vs DMSO), 5 days (fraction); higher = more cells survive
[1] = compound: CC1=CC(=CC=C1)NC2=NC(=CS2)C3=CC=NC=C3 + Cc1cc(Nc2cc(N3CCN(C)CC3)nc(Sc3ccc(NC(=O)C4CC4)cc3)n2)n[nH]1 [Tozasertib] (partner 0.1 µM)
In short: (§1)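 Lung cancer cell lines were pin-tool dosed in 1536-well plates on the day after seeding, with either a lone drug or a fixed anchor-drug dose plus five library-drug doses (not always all listed) in √10 steps. Nuclei were counted on 4× images after 5 days. Relative viability is the ratio of treated-well to vehicle-well nuclei counts, with each value a median of duplicate plates.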

Masitinib + Linsitinib = compound: Cc1ccc(NC(=O)c2ccc(CN3CCN(C)CC3)cc2)cc1Nc1nc(-c2cccnc2)cs1 [Masitinib] + C[C@]1(O)C[C@@H](c2nc(-c3ccc4ccc(-c5ccccc5)nc4c3)c3c(N)nccn32)C1 [Linsitinib] (partner 1 µM)
In short: as §1

Masitinib + Palbociclib = compound: Cc1ccc(NC(=O)c2ccc(CN3CCN(C)CC3)cc2)cc1Nc1nc(-c2cccnc2)cs1 [Masitinib] + CC(=O)c1c(C)c2cnc(Nc3ccc(N4CCNCC4)cn3)nc2n(C2CCCC2)c1=O [Palbociclib] (partner 0.5 µM)
In short: as §1

Masitinib + Navitoclax = compound: Cc1ccc(NC(=O)c2ccc(CN3CCN(C)CC3)cc2)cc1Nc1nc(-c2cccnc2)cs1 [Masitinib] + CC1(C)CCC(c2ccc(Cl)cc2)=C(CN2CCN(c3ccc(C(=O)NS(=O)(=O)c4ccc(N[C@H](CCN5CCOCC5)CSc5ccccc5)c(S(=O)(=O)C(F)(F)F)c4)cc3)CC2)C1 [Navitoclax] (partner 0.5 µM)
In short: as §1

| Cell Line | relative viability ([1]; first compound 0.08 µM) | relative viability ([1]; first compound 0.253 µM) | relative viability ([1]; first compound 0.8 µM) | relative viability ([1]; first compound 2.53 µM) | relative viability ([1]; first compound 8 µM) | relative viability (Masitinib + Linsitinib; first compound 0.01 µM) | relative viability (Masitinib + Linsitinib; first compound 0.03162 µM) | relative viability (Masitinib + Linsitinib; first compound 0.1 µM) | relative viability (Masitinib + Linsitinib; first compound 0.3162 µM) | relative viability (Masitinib + Linsitinib; first compound 1 µM) | relative viability (Masitinib + Palbociclib; first compound 0.01 µM) | relative viability (Masitinib + Palbociclib; first compound 0.03162 µM) | relative viability (Masitinib + Palbociclib; first compound 0.1 µM) | relative viability (Masitinib + Palbociclib; first compound 0.3162 µM) | relative viability (Masitinib + Palbociclib; first compound 1 µM) | relative viability (Masitinib + Navitoclax; first compound 0.01 µM) | relative viability (Masitinib + Navitoclax; first compound 0.03162 µM) | relative viability (Masitinib + Navitoclax; first compound 0.1 µM) | relative viability (Masitinib + Navitoclax; first compound 0.3162 µM) | relative viability (Masitinib + Navitoclax; first compound 1 µM) |
| --- | --- | --- | --- | --- | --- | --- | --- | --- | --- | --- | --- | --- | --- | --- | --- | --- | --- | --- | --- | --- |
| NCI-H2228 | 0.24 | 0.198 | 0.175 | 0.162 | 0.157 | 0.703 | 0.58 | 0.609 | 0.807 | 0.52 | 0.518 | 0.723 | 1.12 | 0.844 | 0.486 | 0.899 | 1.05 | 1.08 | 0.705 | 0.817 |
| EMC-BAC-2 | 0.261 | 0.286 | 0.287 | 0.285 | 0.323 | 0.757 | 0.796 | 0.867 | 0.903 | 0.814 | 0.434 | 0.473 | 0.509 | 0.524 | 0.51 | 1.08 | 0.962 | 1.16 | 1.37 | 1.45 |
| NCI-H2009 | 0.737 | 0.699 | 0.715 | 0.823 | 0.704 | 1.2 | 1.22 | 1.24 | 1.23 | 1.17 | 0.207 | 0.214 | 0.236 | 0.17 | 0.204 | 1.16 | 1.12 | 1.16 | 1.17 | 1.13 |
| NCI-H1915 | 0.455 | 0.442 | 0.411 | 0.367 | 0.404 | – | 1.15 | 1.09 | 0.974 | 1.03 | – | 0.518 | – | 0.536 | 0.642 | – | 0.755 | 0.717 | 0.737 | 0.777 |
| SW 1573 | 0.184 | 0.168 | 0.279 | 0.154 | 0.185 | 0.689 | 0.848 | 0.985 | 0.838 | 0.803 | 0.357 | 0.372 | 0.446 | 0.41 | 0.374 | 0.975 | 1.05 | 1.09 | 1.19 | 0.972 |
| NCI-H1355 | 0.518 | 0.516 | 0.428 | 0.335 | 0.281 | 0.808 | 0.697 | 0.884 | 0.743 | 0.801 | 0.37 | 0.601 | 0.4 | 0.292 | 0.343 | 0.956 | 0.842 | 1 | 0.754 | 0.946 |
| NCI-H1651 | 0.62 | 0.684 | 0.561 | 0.531 | 0.51 | 0.971 | 0.97 | 1.14 | 1 | 0.944 | 0.388 | 0.505 | 0.419 | 0.535 | 0.523 | 1.11 | 1 | 1.15 | 1.02 | 1.1 |
| NCI-H2023 | 0.332 | 0.332 | 0.321 | 0.228 | 0.116 | 0.597 | 0.681 | 0.703 | 0.613 | 0.597 | 0.311 | 0.385 | 0.323 | 0.259 | 0.331 | 1.05 | 0.981 | 1.12 | 0.925 | 0.92 |
| LOU-NH91 | 0.607 | 0.709 | 0.566 | 0.681 | 0.58 | 0.909 | 0.893 | 0.972 | 0.928 | 0.911 | 0.564 | 0.47 | 0.57 | 0.562 | 0.527 | 0.651 | 0.653 | 0.791 | 0.589 | 0.673 |
| NCI-H3122 | 0.386 | 0.455 | 0.47 | 0.384 | 0.457 | 1.01 | 1.01 | 1.06 | 0.828 | 1.1 | 0.163 | 0.197 | 0.227 | 0.18 | 0.175 | 1.03 | 1.04 | 1.04 | 1.09 | 1.04 |
| LCLC-97TM1 | 0.2 | 0.236 | 0.246 | 0.177 | 0.325 | 0.157 | 0.151 | 0.197 | 0.144 | 0.181 | 0.192 | 0.15 | 0.25 | 0.285 | 0.208 | 0.35 | 0.42 | 0.0511 | 0.639 | 0.355 |
| NCI-H647 | 0.266 | 0.29 | 0.286 | 0.316 | 0.222 | 1.03 | 1.19 | 1.03 | 0.849 | 1.26 | 0.419 | 0.369 | 0.49 | 0.325 | 0.375 | 1.14 | 1.1 | 1.08 | 1.23 | 1.09 |
| NCI-H838 | 0.229 | 0.227 | 0.242 | 0.234 | 0.225 | 0.895 | 0.913 | 1.16 | 0.86 | 1.05 | 0.205 | 0.182 | 0.22 | 0.192 | 0.244 | 1.06 | 0.936 | 1.14 | 1.01 | 1.11 |
| H3255 | 0.627 | 0.624 | 0.614 | 0.599 | 0.6 | 0.679 | 0.844 | 0.837 | 0.977 | 0.936 | 0.294 | 0.35 | 0.299 | 0.321 | 0.326 | 0.441 | 0.409 | 0.496 | 0.351 | 0.409 |
| NCI-H1793 | 0.298 | 0.335 | 0.27 | 0.242 | 0.21 | 0.875 | 0.839 | 0.812 | 0.998 | 0.647 | 0.282 | 0.279 | 0.348 | 0.303 | 0.259 | 0.456 | 0.446 | 0.401 | 0.41 | 0.404 |
| LXF-289 | 0.168 | 0.182 | 0.188 | 0.189 | 0.13 | 0.804 | 0.999 | 0.901 | 0.981 | 0.944 | 0.553 | 0.6 | 0.655 | 0.627 | 0.595 | 0.843 | 0.927 | 0.966 | 0.992 | 0.934 |
